Where two headings read alike, the source gives them in different places.
Columns and labels:
[1] = solvent, cited from earlier work
[2] = document value; cited from earlier work
[3] = Hansen solubility parameters (HSP), δ difference and HSP distance Ra
[4] = HSP distance between solvent and pyrene
[5] = HSP distance between solvent and rhodamine B
[6] = total δ of solvent minus total δ of pyrene
[7] = total δ of solvent minus total δ of rhodamine B
[8] = HSP distance between solvent and curcumin (CUR)
[9] = total δ of solvent minus total δ of curcumin (CUR)

Ra [3, 8] | δ difference [3, 9] | Compound | Flash point [1] [°C] | Viscosity [1] [mPa · s] | Viscosity ([1]; listed as 1,3-butanediol (1,3-BDO)) [mPa · s] | Dispersion δD [2] | Hydrogen bonding δH [2] | Polarity δH [2] | Total δ [2] | Volatility/Boiling point [1] [°C] | Ra [3, 4] | Ra [3, 5] | δ difference [3, 6] | δ difference [3, 7]
– | – | CC(O)CCO (stereo not drawn) [1,3-butanediol] | 121 | 130.3 | 130 | – | – | – | – | – | – | – | – | –
– | – | CC(C)=O [Acetone] | −17.8 | 0.316 | – | 15.5 (MPa)^1/2 | 7 (MPa)^1/2 | 10.4 (MPa)^1/2 | 19.935 (MPa)^1/2 | 56 | 16.806 (MPa)^1/2 | 13.727 (MPa)^1/2 | −2.974 (MPa)^1/2 | −10.518 (MPa)^1/2
– | – | CC#N [Acetonitrile] | 5.6 | 0.375 | – | 15.3 (MPa)^1/2 | 6.1 (MPa)^1/2 | 18 (MPa)^1/2 | 24.399 (MPa)^1/2 | 82 | – | – | – | –
– | – | CCCCOC(=O)c1ccccc1C(=O)OCCCC [Dibutyl phthalate] | 171 | 9.72 | – | 17.8 (MPa)^1/2 | 4.1 (MPa)^1/2 | 8.6 (MPa)^1/2 | 20.189 (MPa)^1/2 | 339 | – | – | – | –
13.383 (MPa)^1/2 | 4.096 (MPa)^1/2 | C[S+](C)[O-] [Dimethyl sulfoxide] | – | – | – | 18.4 (MPa)^1/2 | 10.2 (MPa)^1/2 | 16.4 (MPa)^1/2 | 26.675 (MPa)^1/2 | – | – | – | – | –
– | – | CN(C)C=O [Dimethylformamide (DMF), Dimethylformamide] | 58 | 0.802 | – | 17.4 (MPa)^1/2 | 11.3 (MPa)^1/2 | 13.7 (MPa)^1/2 | 24.862 (MPa)^1/2 | – | – | – | – | –
– | – | CCOCC [Ether] | – | – | – | 14.5 (MPa)^1/2 | 4.6 (MPa)^1/2 | 2.9 (MPa)^1/2 | 15.486 (MPa)^1/2 | – | 16.064 (MPa)^1/2 | 20.633 (MPa)^1/2 | −7.423 (MPa)^1/2 | −14.967 (MPa)^1/2
14.383 (MPa)^1/2 | 2.225 (MPa)^1/2 | CCOC(=O)CO [Ethyl glycolate] | 62 | – | – | – | – | – | – | 158 | – | – | – | –
17.614 (MPa)^1/2 | 13.583 (MPa)^1/2 | OCC(O)CO [Glycerol] | – | – | – | 17.4 (MPa)^1/2 | 29.3 (MPa)^1/2 | 12.1 (MPa)^1/2 | 36.162 (MPa)^1/2 | – | – | – | – | –
– | 0.159 (MPa)^1/2 | CCN1CCCC1=O [N-ethylpyrrolidone (NEP), N-ethylpyrrolidone] | 76.1 | – | – | 18 (MPa)^1/2 | 7 (MPa)^1/2 | 12 (MPa)^1/2 | 22.738 (MPa)^1/2 | 218 | – | – | – | –
– | – | Cc1ccccc1 [Toluene] | 4.4 | 0.587 | – | 18 (MPa)^1/2 | 2 (MPa)^1/2 | 1.4 (MPa)^1/2 | – | – | – | – | – | –
– | – | Water | – | 1.002 | – | 15.5 (MPa)^1/2 | 42.3 (MPa)^1/2 | 16 (MPa)^1/2 | 47.807 (MPa)^1/2 | – | – | – | – | –

Compound | Ra [3, 8] | δ difference [3, 9] | Flash point [1] [°C] | Viscosity [1] [mPa · s] | Viscosity ([1]; listed as 1,3-butanediol (1,3-BDO)) [mPa · s] | Dispersion δD [2] | Hydrogen bonding δH [2] | Polarity δH [2] | Total δ [2] | Volatility/Boiling point [1] [°C] | Ra [3, 4] | Ra [3, 5] | δ difference [3, 6] | δ difference [3, 7]
OCCOc1ccccc1 [Ethylene glycol monophenyl ether] | 2.858 (MPa)^1/2 | −0.207 (MPa)^1/2 | 121 | 30.5 | – | 17.8 (MPa)^1/2 | 12.2 (MPa)^1/2 | 5.9 (MPa)^1/2 | 22.372 (MPa)^1/2 | 245 | – | – | – | –
